Assay results from patent publication US12209102B2, “Heterocyclic compounds and uses thereof” (Kumquat Biosciences Inc., priority 2022, dated 2025).

Tests used:
K-Ras G12D = molecular target: T1, K-Ras G12D (Homo sapiens, UniProt P01116, G12D); experiment: HTRF resonance energy transfer assay, K-Ras G12D / SOS1 interaction; format: biochemical; details: HTRF assay of Example 5; read-out: IC50 against K-Ras G12D
T1 construct: made in house; host or cells: E. coli BL21 (DE3)
In short: (§1)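 Compounds, tested in duplicate at 10 μM down to 0.01 μM, were read after about 10 min or more by HTRF as the 665/620 nm emission ratio (337 nm excitation) to derive IC50. This ratio reports FRET between an anti-GST-Eu donor on GST-K-Ras (wild-type or mutant) and an anti-6His-XL665 acceptor on His-hSOS1. Buffer: ~5 mM HEPES pH 7.4, 150 mM NaCl, 1 mM DTT, 0.05% BSA, 0.0025% Igepal.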

K-Ras G12S = molecular target: T2, K-Ras G12S (Homo sapiens, UniProt P01116, G12S); experiment: HTRF resonance energy transfer assay, K-Ras G12S / SOS1 interaction; format: biochemical; details: HTRF assay of Example 5; read-out: IC50 against K-Ras G12S
T2 construct: made in house; host or cells: E. coli BL21 (DE3)
In short: as §1

K-Ras G12V = molecular target: T3, K-Ras G12V (Homo sapiens, UniProt P01116, G12V); experiment: HTRF resonance energy transfer assay, K-Ras G12V / SOS1 interaction; format: biochemical; details: HTRF assay of Example 5; read-out: IC50 against K-Ras G12V
T3 construct: made in house; host or cells: E. coli BL21 (DE3)
In short: as §1

K-Ras WT = molecular target: T4, K-Ras WT (Homo sapiens, UniProt P01116); experiment: HTRF resonance energy transfer assay, K-Ras WT / SOS1 interaction; format: biochemical; details: HTRF assay of Example 5; read-out: IC50 against K-Ras WT
T4 construct: made in house; host or cells: E. coli BL21 (DE3)
In short: as §1

GP2D cells = experiment: Ras cellular assay, growth of cells with K-Ras G12D mutation (CellTiter-Glo); format: cell-based; details: cell growth, Example 9, G12D mutation, read-out: IC50 against GP2D cells
A549 cells = experiment: Ras cellular assay, growth of cells with K-Ras G12S mutation (CellTiter-Glo); format: cell-based; details: Homo sapiens, cell growth, Example 9, G12S mutation, read-out: IC50 against A549 cells
In short: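 Growth inhibition IC50 values come from four-parameter fits of CellTiter-Glo luminescence, read about 6 days after compound addition. G12S-mutant A549 cells (e.g. 800/well, RPMI-1640 + 10% heat-inactivated FBS) were plated in tissue-culture-treated or ultra-low-attachment 384-well format. Dosing began the following day with serial dilutions, e.g. 10 points, 3-fold.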

SW620 cells = experiment: Ras cellular assay, growth of cells with K-Ras G12V mutation (CellTiter-Glo); format: cell-based; details: Homo sapiens, SW-620; cell growth, Example 9, G12V mutation; read-out: IC50 against SW620 cells
In short: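 IC50 values came from a four-parameter fit of CellTiter-Glo viability, read roughly 6 days after dosing with e.g. a 10-point threefold dilution series. G12V-mutant SW620 cells (e.g. 800 per well) had been plated the previous day in RPMI-1640/10% heat-inactivated FBS, on tissue culture-treated or ultra-low attachment plates.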

T3 sequence (P01116 1-188 isoform P01116-2 G12V): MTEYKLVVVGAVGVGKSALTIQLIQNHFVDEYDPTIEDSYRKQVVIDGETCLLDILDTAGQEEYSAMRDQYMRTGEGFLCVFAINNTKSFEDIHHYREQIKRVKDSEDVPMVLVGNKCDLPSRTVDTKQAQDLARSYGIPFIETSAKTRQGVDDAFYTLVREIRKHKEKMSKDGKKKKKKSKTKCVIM
T1 sequence (P01116 1-188 isoform P01116-2 G12D): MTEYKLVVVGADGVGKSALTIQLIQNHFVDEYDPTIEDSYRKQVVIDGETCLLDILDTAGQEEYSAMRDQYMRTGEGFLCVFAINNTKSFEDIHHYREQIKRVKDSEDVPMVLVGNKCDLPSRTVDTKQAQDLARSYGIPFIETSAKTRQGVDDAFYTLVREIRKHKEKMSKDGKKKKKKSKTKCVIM
T2 sequence (P01116 1-188 isoform P01116-2 G12S): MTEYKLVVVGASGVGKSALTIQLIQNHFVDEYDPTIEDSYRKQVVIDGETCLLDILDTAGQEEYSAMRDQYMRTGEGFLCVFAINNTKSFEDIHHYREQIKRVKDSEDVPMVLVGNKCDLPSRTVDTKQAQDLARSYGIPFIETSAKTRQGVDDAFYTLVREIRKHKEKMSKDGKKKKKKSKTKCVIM
T4 sequence (P01116 1-188 isoform P01116-2): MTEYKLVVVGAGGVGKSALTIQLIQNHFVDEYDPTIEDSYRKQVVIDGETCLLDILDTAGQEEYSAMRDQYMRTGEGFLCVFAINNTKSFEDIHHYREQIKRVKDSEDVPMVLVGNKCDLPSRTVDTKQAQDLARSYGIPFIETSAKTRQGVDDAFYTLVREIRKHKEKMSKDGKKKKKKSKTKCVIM

Row | SMILES | IC50 (K-Ras G12D) [nM] | IC50 (K-Ras G12S) [nM] | IC50 (K-Ras G12V) [nM] | IC50 (K-Ras WT) [nM] | IC50 (A549 cells) [nM] | IC50 (SW620 cells) [nM] | IC50 (GP2D cells) [nM]
1 | N#Cc1c(N)sc2c(F)ccc(-c3c(Cl)c4c5c(nc(OC[C@@]67CCCN6C[C@H](F)C7)nc5c3F)N(C3CCCOC3)CCO4)c12 (stereo partly drawn) [Compound 819, 2-amino-4-(8-chloro-10-fluoro-2-(((2R,7aS)-2-fluorotetrahydro-1H-pyrrolizin-7a(5H)-yl)methoxy)-4-(tetrahydro-2H-pyran-3-yl)-5,6-dihydro-4H-[1,4]oxazepino[5,6,7-de]quinazolin-9-yl)-7-fluorobenzo[b]thiophene-3-carbonitrile] | < 100 | < 100 | < 100 | < 100 | < 5000 | < 5000 | < 500
2 | N#Cc1c(N)sc2c(F)ccc(-c3c(Cl)c4c5c(nc(OC[C@@]67CCCN6C[C@H](F)C7)nc5c3F)N(C3CCNC3)CCO4)c12 (stereo partly drawn) [Compound 969, 2-amino-4-(8-chloro-10-fluoro-2-(((2R,7aS)-2-fluorotetrahydro-1H-pyrrolizin-7a(5H)-yl)methoxy)-4-(pyrrolidin-3-yl)-5,6-dihydro-4H-[1,4]oxazepino[5,6,7-de]quinazolin-9-yl)-7-fluorobenzo[b]thiophene-3-carbonitrile] | < 100 | < 100 | < 100 | < 100 | < 5000 | < 5000 | < 500
3 | CO[C@@H](C)C(=O)N1CCC(N2CCOc3c(Cl)c(-c4ccc(F)c5sc(N)c(C#N)c45)c(F)c4nc(OC[C@@]56CCCN5C[C@H](F)C6)nc2c34)C1 (stereo partly drawn) [Compound 742, 2-amino-4-(8-chloro-10-fluoro-2-(((2R,7aS)-2-fluorotetrahydro-1H-pyrrolizin-7a(5H)-yl)methoxy)-4-(1-((S)-2-methoxypropanoyl)pyrrolidin-3-yl)-5,6-dihydro-4H-[1,4]oxazepino[5,6,7-de]quinazolin-9-yl)-7-fluorobenzo[b]thiophene-3-carbonitrile] | < 100 | < 100 | < 100 | < 100 | < 5000 | < 5000 | < 500
4 | N#Cc1c(N)sc2c(F)ccc(-c3c(Cl)c4c5c(nc(OC[C@@]67CCCN6C[C@H](F)C7)nc5c3F)N(C3C5CC3N(C=O)C5)CCO4)c12 (stereo partly drawn) [Compound 654, 2-amino-4-(8-chloro-10-fluoro-2-(((2R,7aS)-2-fluorotetrahydro-1H-pyrrolizin-7a(5H)-yl)methoxy)-4-(2-formyl-2-azabicyclo[2.1.1]hexan-5-yl)-5,6-dihydro-4H-[1,4]oxazepino[5,6,7-de]quinazolin-9-yl)-7-fluorobenzo[b]thiophene-3-carbonitrile] | < 100 | < 100 | < 100 | < 100 | < 5000 | < 5000 | < 500
5 | N#Cc1c(N)sc2c(F)ccc(-c3c(Cl)c4c5c(nc(OC[C@@]67CCCN6C[C@H](F)C7)nc5c3F)N(C3COCCOC3)CCO4)c12 [Compound 803, 2-amino-4-(8-chloro-4-(1,4-dioxepan-6-yl)-10-fluoro-2-(((2R,7aS)-2-fluorotetrahydro-1H-pyrrolizin-7a(5H)-yl)methoxy)-5,6-dihydro-4H-[1,4]oxazepino[5,6,7-de]quinazolin-9-yl)-7-fluorobenzo[b]thiophene-3-carbonitrile] | < 100 | < 100 | < 100 | < 100 | < 5000 | < 5000 | < 500

More lines, main results first:

Row | IC50 (K-Ras G12D) [nM] | IC50 (K-Ras G12S) [nM] | IC50 (K-Ras G12V) [nM] | IC50 (K-Ras WT) [nM] | IC50 (A549 cells) [nM] | IC50 (SW620 cells) [nM] | SMILES | IC50 (GP2D cells) [nM]
6 | < 100 | < 100 | < 100 | < 100 | < 5000 | < 5000 | N#Cc1c(N)sc2c(F)ccc(-c3c(Cl)c4c5c(nc(OC[C@@]67CCCN6C[C@H](F)C7)nc5c3F)N(C3CCC5(C3)CN(C(=O)CC3COC3)C5)CCO4)c12 (stereo partly drawn) [Compound 1115, 2-amino-4-(8-chloro-10-fluoro-2-(((2R,7aS)-2-fluorotetrahydro-1H-pyrrolizin-7a(5H)-yl)methoxy)-4-(2-(2-(oxetan-3-yl)acetyl)-2-azaspiro[3.4]octan-6-yl)-5,6-dihydro-4H-[1,4]oxazepino[5,6,7-de]quinazolin-9-yl)-7-fluorobenzo[b]thiophene-3-carbonitrile] | < 500
7 | < 100 | < 100 | < 100 | < 100 | < 5000 | < 5000 | CN(C)CCCN1CCOc2c(Cl)c(-c3ccc(F)c4sc(N)c(C#N)c34)c(F)c3nc(OC[C@@]45CCCN4C[C@H](F)C5)nc1c23 [Compound 1020, 2-amino-4-(8-chloro-4-(3-(dimethylamino)propyl)-10-fluoro-2-(((2R,7aS)-2-fluorotetrahydro-1H-pyrrolizin-7a(5H)-yl)methoxy)-5,6-dihydro-4H-[1,4]oxazepino[5,6,7-de]quinazolin-9-yl)-7-fluorobenzo[b]thiophene-3-carbonitrile] | < 500
8 | < 100 | < 100 | < 100 | < 100 | < 5000 | < 5000 | COC1(C(=O)N2CCC(N3CCOc4c(Cl)c(-c5ccc(F)c6sc(N)c(C#N)c56)c(F)c5nc(OC[C@@]67CCCN6C[C@H](F)C7)nc3c45)C2)CC1 (stereo partly drawn) [Compound 1038, 2-amino-4-(8-chloro-10-fluoro-2-(((2R,7aS)-2-fluorotetrahydro-1H-pyrrolizin-7a(5H)-yl)methoxy)-4-(1-(1-methoxycyclopropane-1-carbonyl)pyrrolidin-3-yl)-5,6-dihydro-4H-[1,4]oxazepino[5,6,7-de]quinazolin-9-yl)-7-fluorobenzo[b]thiophene-3-carbonitrile] | < 500
9 | < 100 | < 100 | < 100 | < 100 | < 5000 | < 5000 | CN(C=O)C1CC(N2CCOc3c(Cl)c(-c4ccc(F)c5sc(N)c(C#N)c45)c(F)c4nc(OC[C@@]56CCCN5C[C@H](F)C6)nc2c34)C1 (stereo partly drawn) [Compound 1119, N-(3-(9-(2-amino-3-cyano-7-fluorobenzo[b]thiophen-4-yl)-8-chloro-10-fluoro-2-(((2R,7aS)-2-fluorotetrahydro-1H-pyrrolizin-7a(5H)-yl)methoxy)-5,6-dihydro-4H-[1,4]oxazepino[5,6,7-de]quinazolin-4-yl)cyclobutyl)-N-methylformamide] | < 500
10 | < 100 | < 100 | < 100 | < 100 | < 5000 | < 5000 | COCCN1CCOc2c(Cl)c(-c3ccc(F)c4sc(N)c(C#N)c34)c(F)c3nc(OC[C@@]45CCCN4C[C@H](F)C5)nc1c23 [Compound 1061, 2-amino-4-(8-chloro-10-fluoro-2-(((2R,7aS)-2-fluorotetrahydro-1H-pyrrolizin-7a(5H)-yl)methoxy)-4-(2-methoxyethyl)-5,6-dihydro-4H-[1,4]oxazepino[5,6,7-de]quinazolin-9-yl)-7-fluorobenzo[b]thiophene-3-carbonitrile] | < 500
11 | < 100 | < 100 | < 100 | < 100 | < 5000 | < 5000 | N#Cc1c(N)sc2c(F)ccc(-c3c(Cl)c4c5c(nc(OC[C@@]67CCCN6C[C@H](F)C7)nc5c3F)N(C3CCN(C(=O)[C@@H]5CCCO5)C3)CCO4)c12 (stereo partly drawn) [Compound 984, 2-amino-4-(8-chloro-10-fluoro-2-(((2R,7aS)-2-fluorotetrahydro-1H-pyrrolizin-7a(5H)-yl)methoxy)-4-(1-((S)-tetrahydrofuran-2-carbonyl)pyrrolidin-3-yl)-5,6-dihydro-4H-[1,4]oxazepino[5,6,7-de]quinazolin-9-yl)-7-fluorobenzo[b]thiophene-3-carbonitrile] | < 500
12 | < 100 | < 100 | < 100 | < 100 | < 5000 | < 5000 | N#Cc1c(N)sc2c(F)ccc(-c3c(Cl)c4c5c(nc(OC[C@@]67CCCN6C[C@H](F)C7)nc5c3F)N(C3CCN(C(=O)CC5COC5)C3)CCO4)c12 (stereo partly drawn) [Compound 1126, 2-amino-4-(8-chloro-10-fluoro-2-(((2R,7aS)-2-fluorotetrahydro-1H-pyrrolizin-7a(5H)-yl)methoxy)-4-(1-(2-(oxetan-3-yl)acetyl)pyrrolidin-3-yl)-5,6-dihydro-4H-[1,4]oxazepino[5,6,7-de]quinazolin-9-yl)-7-fluorobenzo[b]thiophene-3-carbonitrile] | < 500
